In brackets after ≈: the same amount, converted by molar mass. Activity calls are given as the source filed them. No cut-off for these calls is given here.
Tests used:
Bacillus subtilis = experiment: Antibacterial activity against Bacillus subtilis MTCC 441 after 24 hrs by serial dilution method; assay type: functional; details: MTCC 441, 24 h
Staphylococcus aureus = experiment: Antibacterial activity against Staphylococcus aureus MTCC 737 after 24 hrs by serial dilution method; assay type: functional; details: MTCC 737, 24 h
Escherichia coli = experiment: Antibacterial activity against Escherichia coli MTCC 1687 after 24 hrs by serial dilution method; assay type: functional; details: MTCC 1687, 24 h
[1] = molecular target: T1, Basic phospholipase A2 VRV-PL-VIIIa (Daboia russelii) (UniProt P59071); experiment: (§1) Inhibition of Vipera russelii venom sPLA2 using DMPC as substrate preincubated for 2 mins followed by substrate addition measured after 30 mins
T1 sequence (whole entry): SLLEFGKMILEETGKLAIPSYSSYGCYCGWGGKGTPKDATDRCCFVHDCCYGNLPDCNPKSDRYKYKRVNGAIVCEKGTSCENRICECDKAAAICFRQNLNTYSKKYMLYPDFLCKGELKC

[2] = molecular target: T2, Basic phospholipase A2 VRV-PL-VIIIa (Daboia russelii, UniProt P59071); experiment: as §1
T2 sequence (P59071 whole entry): T1 sequence (whole entry)

Aspergillus flavus = experiment: Antifungal activity against Aspergillus flavus after 72 hrs by serial dilution method; assay type: functional
Aspergillus niger = experiment: Antifungal activity against Aspergillus niger after 72 hrs by serial dilution method; assay type: functional
Candida albicans = experiment: Antifungal activity against Candida albicans MTCC 227 after 72 hrs by serial dilution method; assay type: functional
[3] = molecular target: T1, Basic phospholipase A2 VRV-PL-VIIIa (Daboia russelii); experiment: Inhibition of Vipera russelii venom sPLA2 using DMPC as substrate at 10.214 uM preincubated for 2 mins followed by substrate addition measured after 30 mins in presence of 1 to 12 mM CaCl2
[4] = molecular target: T1, Basic phospholipase A2 VRV-PL-VIIIa (Daboia russelii); experiment: Inhibition of Vipera russelii venom sPLA2 using DMPC as substrate at 11.930 uM preincubated for 2 mins followed by substrate addition measured after 30 mins in presence of 1 to 12 mM CaCl2
[5] = molecular target: T1, Basic phospholipase A2 VRV-PL-VIIIa (Daboia russelii); experiment: Inhibition of Vipera russelii venom sPLA2 using DMPC as substrate at 11.102 uM preincubated for 2 mins followed by substrate addition measured after 30 mins in presence of 1 to 12 mM CaCl2

Molecule | MIC90 (Bacillus subtilis) [µg/mL] | MIC90 (Staphylococcus aureus) [µg/mL] | MIC90 (Escherichia coli) [µg/mL] | inhibition [1] | IC50 [2] [µM] | MIC90 (Aspergillus flavus) [µg/mL] | MIC90 (Aspergillus niger) [µg/mL] | MIC90 (Candida albicans; MTCC 227, 72 h) [µg/mL] | inhibition [3] | inhibition [4] | MIC90 (Candida albicans) [µg/mL] | inhibition [5]
O=C(O)c1cn(C2CC2)c2cc(N3CCNCC3)c(F)cc2c1=O [CIPROFLOXACIN] | 40 (≈ 121 µM) | 20 (≈ 60.4 µM) | 20 (≈ 60.4 µM) |  |  |  |  |  |  |  |  | 
COc1cccc(C2=NN(c3cccc(Cl)c3)C(c3cccc(Cl)c3Cl)C2)c1 (stereo unspecified) | 125 (≈ 290 µM) | 50 (≈ 116 µM) | 30 (≈ 69.5 µM) | Dose-dependent effect | 30.1 | 130 (≈ 301 µM) | 60 (≈ 139 µM) | 50 (≈ 116 µM) |  |  |  | 
Fc1ccc(C2=NN(c3cccc(Cl)c3)C(c3cccc(Cl)c3Cl)C2)cc1 (stereo unspecified) | 120 (≈ 286 µM) | 40 (≈ 95.3 µM) | 25 (≈ 59.6 µM) | Dose-dependent effect | 19.2 | 130 (≈ 310 µM) | 30 (≈ 71.5 µM) | 50 (≈ 119 µM) |  |  |  | 
Clc1ccc(C2=NN(c3ccccc3)C(c3cccc(Cl)c3Cl)C2)cc1 (stereo unspecified) | 125 (≈ 311 µM) | 15 (≈ 37.3 µM) | 20 (≈ 49.8 µM) | Dose-dependent effect | 10.2 | 120 (≈ 299 µM) | 25 (≈ 62.2 µM) | 15 (≈ 37.3 µM) | Active |  |  | 
Clc1ccc(C2=NN(c3cccc(Cl)c3)C(c3cccc(Cl)c3Cl)C2)cc1 (stereo unspecified) | 100 (≈ 229 µM) | 10 (≈ 22.9 µM) | 15 (≈ 34.4 µM) | Dose-dependent effect | 14.6 | 110 (≈ 252 µM) | 15 (≈ 34.4 µM) | 15 (≈ 34.4 µM) |  |  |  | 
Cc1ccc(C2=NN(c3ccccc3)C(c3cccc(Cl)c3Cl)C2)cc1 (stereo unspecified) | 120 (≈ 315 µM) | 60 (≈ 157 µM) | 60 (≈ 157 µM) | Dose-dependent effect | 21.7 | 120 (≈ 315 µM) | 75 (≈ 197 µM) | 60 (≈ 157 µM) |  |  |  | 
COc1cccc(C2=NN(c3ccccc3)C(c3cccc(Cl)c3Cl)C2)c1 (stereo unspecified) | 130 (≈ 327 µM) | 50 (≈ 126 µM) | 50 (≈ 126 µM) | Dose-dependent effect | 29.8 | 120 (≈ 302 µM) | 40 (≈ 101 µM) | 40 (≈ 101 µM) |  |  |  | 
COc1ccc(C2=NN(c3ccccc3)C(c3cccc(Cl)c3Cl)C2)cc1 (stereo unspecified) | 140 (≈ 352 µM) | 40 (≈ 101 µM) | 40 (≈ 101 µM) | Dose-dependent effect | 11.9 | 125 (≈ 315 µM) | 50 (≈ 126 µM) | 30 (≈ 75.5 µM) |  | Active |  | 
NYSTATIN |  |  |  |  |  | 25 | 25 |  |  |  | 20 | 
Clc1cccc(C2CC(c3ccccc3)=NN2c2ccccc2)c1Cl (stereo unspecified) | 125 (≈ 340 µM) | 50 (≈ 136 µM) | 75 (≈ 204 µM) | Dose-dependent effect | 12 | 110 (≈ 299 µM) | 30 (≈ 81.7 µM) | 25 (≈ 68.1 µM) |  |  |  | 
Fc1ccc(C2=NN(c3ccccc3)C(c3cccc(Cl)c3Cl)C2)cc1 (stereo unspecified) | 125 (≈ 324 µM) | 40 (≈ 104 µM) | 25 (≈ 64.9 µM) | Dose-dependent effect | 11.1 | 120 (≈ 311 µM) | 30 (≈ 77.9 µM) | 50 (≈ 130 µM) |  |  |  | Active
Clc1cccc(N2N=C(c3ccc4c(c3)OCO4)CC2c2cccc(Cl)c2Cl)c1 (stereo unspecified) | 140 (≈ 314 µM) | 120 (≈ 269 µM) | 130 (≈ 292 µM) | Dose-dependent effect | 49.8 | 120 (≈ 269 µM) | 120 (≈ 269 µM) | 130 (≈ 292 µM) |  |  |  | 
Clc1cccc(C2CC(c3ccc4c(c3)OCO4)=NN2c2ccccc2)c1Cl (stereo unspecified) | 140 (≈ 340 µM) | 130 (≈ 316 µM) | 140 (≈ 340 µM) | Dose-dependent effect | 48.2 | 130 (≈ 316 µM) | 130 (≈ 316 µM) | 120 (≈ 292 µM) |  |  |  | 
COc1ccccc1C1=NN(c2ccccc2)C(c2cccc(Cl)c2Cl)C1 (stereo unspecified) | 125 (≈ 315 µM) | 40 (≈ 101 µM) | 50 (≈ 126 µM) | Dose-dependent effect | 30.3 | 125 (≈ 315 µM) | 40 (≈ 101 µM) | 30 (≈ 75.5 µM) |  |  |  | 
Clc1cccc(N2N=C(c3ccccc3)CC2c2cccc(Cl)c2Cl)c1 (stereo unspecified) | 120 (≈ 299 µM) | 20 (≈ 49.8 µM) | 20 (≈ 49.8 µM) | Dose-dependent effect | 19.3 | 125 (≈ 311 µM) | 20 (≈ 49.8 µM) | 15 (≈ 37.3 µM) |  |  |  | 
COc1ccccc1C1=NN(c2cccc(Cl)c2)C(c2cccc(Cl)c2Cl)C1 (stereo unspecified) | 140 (≈ 324 µM) | 40 (≈ 92.6 µM) | 40 (≈ 92.6 µM) | Dose-dependent effect | 35.1 | 130 (≈ 301 µM) | 50 (≈ 116 µM) | 40 (≈ 92.6 µM) |  |  |  | 

From ChEMBL document CHEMBL4052734, “Synthesis of novel 2-pyrazoline analogues with potent anti-inflammatory effect mediated by inhibition of phospholipase A2: Crystallographic, in silico docking and QSAR analysis” (Bioorg Med Chem Lett, 2017)
